This is an account of results in US9308210B2, “Method for modulating canonical Wnt pathway using folate and inositol” (University of South Florida, priority 2009, dated 2016).

Counter-ions that a name gives are not always drawn.

For data set [1] the following is noted: seven years after FA fortification; Quebec, Canada; cited from earlier work.
In another data set the test system is HTR-8/SVneo cells. As to the kind of experiment: In vitro wound assay of human trophoblast cell migration. Format: cell-based. The settings on record: HCy exposure experiments; scrape wound. The text has this:
In previous studies by the inventors analyzing the effects of lithium and the metabolite homocysteine (HCy) on early heart development, the results were similar. Both factors inhibited Wnt/β-catenin-mediated gene expression during induction stages of cardiogenesis. […] Folate protects the embryo from these adverse effects (Han et al., 2009). It was also noted that normal placental development was adversely affected by Li and HCy. A human trophoblast cell line, HTR-8/SVneo cells, was used to determine whether Li or HCy affect the migration of these cells in vitro and whether FA or FA/myo-inositol would protect the cells from adverse effects of the two cardiac teratogens. HCy exposure experiments were conducted. […] The wound edges are depicted by a white line in B. In panel A, it can be seen that the wound area is smaller. Administration of a combination of FA/myo-inositol, FA alone or myo-inositol alone, enhanced the expression of NMHC-IIB and FN to facilitate cell migration.

The test system of the next data set is chick embryos. As to the kind of experiment: Early embryonic chick culture: heart development (MF20) after HCy, Li or Wnt3A exposure, FA/inositol rescue. Format: in vivo, chick (Gallus gallus). The settings on record: for % Normal Hearts / Abnormal (number of embryos) / Normal (number of embryos): HCy 50 μM, FA 10 μM. The protocol: Pathogen-free White Leghorn chick (Gallus gallus; Charles River, Mass.) and quail (Coturnix coturnix japonica; Strickland Farms, Ga.) embryos were used to analyze the effects of HCy on early embryogenesis. The early processes of heart development are well conserved among vertebrates and the avian model allows for more precise timing of exposure in early embryos. The incubation methodology using agarose-albumin has been described previously (Darnell and Schoenwolf, 2000). Briefly, the experimental paradigm involved exposing specific early stages of chick embryos, at HH stages 4 to 7 (Hamburger and Hamilton, 1951), to different concentrations of HCy (L-homocysteine thiolactone hydrochloride, Sigma) made up in physiological saline. Final concentrations of HCy included 30 μM, 50 μM, 75 μM and 100 μM. The minimal teratogenic dose was determined empirically to be 50 μM. This fit within the concentration range of 30 μM to 300 μM used by others that induced heart defects at later stages of development (Boot et al., 2004). Control embryos were incubated using the vehicle, physiological saline, in the agarose-albumin medium. Control and experimental cultures were incubated on the agarose-albumin plates for either 8 or 24 hours.
Carrier-free, recombinant mouse Wnt3A was purchased from R&D Systems (Minneapolis, Minn.). Wnt3A concentrations were empirically tested to find those that would induce cardiac defects but maintain embryonic viability. Wnt3A was tested at concentrations of 2 ng, 10 ng, 20 ng, 50 ng and 100 ng per ml. Concentrations of 2 ng/ml and 10 ng/ml were both effective in inducing cardiac defects. Both Wnt3A concentrations were used in the FA rescue experiments, as described. For the FA rescue experiments, folate (folic acid, Sigma-Aldrich) was added at a concentration of 2 μg, 5 μg or 10 μg per ml. […] For the experiments using inositol (myo-inositol, Sigma) supplementation, a concentration of 50 mg/ml was used.
The main embryonic defects related to the timing of embryonic exposure; the regions that were primarily affected related to an anterior-to posterior (AP) wave of development along this embryonic axis. The exposure effects ranged from early effects (e.g. no cardiac tissue, heart development occurring anterior to neural tissue, cardiabifida) to later effects, such as wide hearts and left looping (Table 1). The cardiac phenotypes observed with early HCy exposure were similar, although not identical, to those obtained from previous studies of Li exposure on avian heart development (Manisastry et al., 2006). The Wnt/β-catenin modulated genes Hex and Isl1 in the chick embryo also were similarly repressed with HCy, as with Li in the chick cardiogenic region. […] Investigation of regulatory gene activity in chick embryos indicates Li, HCy and Wnt3A suppress Wnt-modulated genes Hex and Islet-1 in the heart fields.
To define the effective dose of Wnt3A needed to induce cardiac dysmorphogenesis, Wnt3A was tested at concentrations of 2 ng, 10 ng, 20 ng, 50 ng, and 100 ng per ml. The minimal effective doses of Wnt3A that induced cardiac and neural anomalies were 2 ng/ml and 10 ng/ml, respectively. Using these concentrations, the inventors analyzed whether FA supplementation of media at 10^3-fold higher concentrations, that is 2 μg/ml or 10 μg/ml, would provide protection against the augmentation of canonical Wnt3A signaling.

In data set [2] the test system is Medium-Chain Acyl CoA Dehydrogenase (MCAD) protein. In words: Immunostaining of MCAD protein in E15.5 hearts. Format: in vivo, mouse. As to conditions: E15.5 heart; versus control. Here is the method:
Li+-, and HCys-, and control, NaCl-exposed, embryos were fixed in 4% paraformaldehyde in PBS, paraffin embedded, and sectioned. Sections were immunostained with MCAD antibodies (Sigma, St. Louis, Mo.) for the protein product of Acadm gene expression. Primary antibody localization was visualized with Cy3-secondary antibodies. Localization of gene and protein expression was analyzed with a Nikon Optiphot II phase microscope (Nikon Instruments, Inc., Melville, N.Y.). Digitized images were obtained with a Nikon DS-L2 Camera unit.

Where [3] appears, read: HH stage 3 +/4, Li 50 μM, inositol 280 mM.
The mark [4] stands for this setting: 50 μM HCy, early embryonic chick model.
Where [5] appears, read: White Leghorn, chick, in vivo, 50 μM.

With `Nc1nc2ncc(CNc3ccc(C(=O)N[C@@H](CCC(=O)O)C(=O)O)cc3)nc2c(=O)[nH]1` [FA, folic acid], the “yearly decrease in the prevalence of severe heart defects” value in data set [1] was 6%. In addition, in the data set on HTR-8/SVneo cells, the “expression of NMHC-IIB and FN” value is listed as “enhanced”. In the data set with chick embryos (setting [3]), the “% Normal Hearts” value came out at 55%, the “Abnormal (number of embryos)” value is on record as 5 and the “Normal (number of embryos)” value is 6. The “% Normal Hearts” value in the data set on chick embryos (HH stage 3 +/4, Li 50 μM, inositol 280 mM, listed as FA only) turned out to be 55%. Moreover, in the data set on chick embryos (in vivo), the “heart development (MF20)” value was “normal heart development”.

Take `N[C@H]1CCSC1=O` [HCy, L-homocysteine thiolactone hydrochloride]: in the data set with chick embryos (setting [4]), the “Dead, Frequency” value stood at 6 and the “Dead, Percent” value is on record as 5.6%. Besides, in the data set on chick embryos (setting [3]), the “Abnormal (number of embryos)” value amounted to 100 and the “Normal (number of embryos)” value worked out at 28. The “% Normal Hearts” value with chick embryos (HH stage 3 +/4, Li 50 μM, inositol 280 mM, hydrochloride) worked out at 22%. In the data set on chick embryos (HH stage 5), the “Abnormal (number of embryos)” value is listed as 50 and the “Normal (number of embryos)” value is 24. In addition, in the data set on chick embryos (HH stage 5, hydrochloride), the “% Normal Hearts” value amounted to 32%. The same compound returned a minimal teratogenic dose with chick embryos (White Leghorn, chick, in vivo) of 50 µM. Also, in the data set on chick embryos (setting [5]), the “Cardiabificla, Frequency” value is recorded as 11; the “Cardiabificla, Percent” value is 10.2%; the “Delayed development, Frequency” value came to 2; the “Delayed development, Percent” value is listed as 1.9%. Moreover, in the data set with chick embryos (setting [5]), the “Heart above head, Frequency” value was determined as 18; the “Heart above head, Percent” value came to 16.7%; the “Heart close midline, Frequency” value is on record as 15; the “Heart close midline, Percent” value amounted to 13.9%. In the data set on chick embryos (setting [5]), the “Left looping, Frequency” value is 11; the “Left looping, Percent” value came to 10.2%; the “Tubular heart, Frequency” value was 3; the “Tubular heart, Percent” value is given as 2.8%. Further, in the data set on chick embryos (setting [5]), the “Very abnormal (or no hearts), Frequency” value is given as 18; the “Very abnormal (or no hearts), Percent” value came out at 16.7%; the “Wide heart, Frequency” value was found to be 24; the “Wide heart, Percent” value is given as 22.2%. Besides, the “development after exposure at HH stages 6 and 7” value in the data set on chick embryos (in vivo) was “normal development”. In addition, the MCAD protein result in data set [2] is “increased”.
